Measured values reported in patent US20160244452A1, “HETEROCYCLIC COMPOUNDS AND USES THEREOF” (INFINITY PHARMACEUTICALS, INC., priority 2014, published 2016).

Legend:
[1] = target: T1, α PI3K (Homo sapiens, UniProt P42336); experiment: PI3-Kinase Promega ADP-Glo Max assay, α isoform; type: biochemical; conditions: 20 nM kinase, 3 mM ATP, 500 uM diC8-PtdInsP
T1 construct: purchased Millipore
Method: (§1) PI3-Kinase Promega™ Assay
(§2) Promega ADP-Glo Max assay kit (Cat. No. V7002) was utilized to determine IC50 values for α, β, δ and γ isoforms of human Class I PI3 kinases (Millipore). Samples of kinase (20 nM α or δ, 40 nM β or γ isoform) were incubated with compound for 15 minutes at room temperature in reaction buffer (15 mM HEPES pH 7.4, 20 mM NaCl, 1 mM EGTA, 0.02% Tween 20, 10 mM MgCl2, 0.2 mg/mL bovine-γ-globulins) followed by addition of ATP/diC8-PtdInsP mixture to give final concentrations of 3 mM ATP and 500 uM diC8-PtdInsP. Reactions were incubated at room temperature for 2 hours followed by addition of 25 uL of stop solution. After a 40-minute incubation at room temperature, 50 uL of Promega detection mix was added followed by incubation for 1 hour at room temperature. Plates were then read on Envision plate reader in luminescence mode. Data was converted to % inhibition using the following equation below: […]
(§3) where S is the sample luminescence, Pos is a positive control without added PI3K, Neg is the negative control without added compound. Data was then plotted as % inhibition vs compound concentration. Data fit to 4 parameter logistic equation to determine IC50 values: […]
(§4) Certain compounds provided herein were tested in PI3-Kinase Promega Assay using procedures as described above to determine IC50 values for α, β, δ and/or γ isoforms.

[2] = target: T2, β PI3K (Homo sapiens, UniProt P42338); experiment: PI3-Kinase Promega ADP-Glo Max assay, β isoform; type: biochemical; conditions: 40 nM kinase, 3 mM ATP, 500 uM diC8-PtdInsP
T2 construct: purchased Millipore
Method: as §1, §2, §3, §4

[3] = target: T3, δ PI3K (Homo sapiens, UniProt O00329); experiment: PI3-Kinase Promega ADP-Glo Max assay, δ isoform; type: biochemical; conditions: 20 nM kinase, 3 mM ATP, 500 uM diC8-PtdInsP
T3 construct: purchased Millipore
Method: as §1, §2, §3, §4

[4] = target: T4, γ PI3K (Homo sapiens, UniProt P48736); experiment: PI3-Kinase Promega ADP-Glo Max assay, γ isoform; type: biochemical; conditions: 40 nM kinase, 3 mM ATP, 500 uM diC8-PtdInsP
T4 construct: purchased Millipore
Method: as §1, §2, §3, §4

[5] = target: T5, p110 δ (Homo sapiens, UniProt O00329); experiment: PI3K-δ selective cellular assay: phospho-AKT in anti-human IgM stimulated RAJI cells; type: cell-based; conditions: serum-starved RAJI cells stimulated with anti-human IgM
T5 construct: endogenous in cells; host or cells: RAJI cells
Source text: (a) PI3K-δ Selective Assay
A compound's ability in selectively inhibiting PI3K-δ can be assessed using RAJI cells, i.e., B lymphocyte cells derived from lymphoma patients. Briefly, serum-starved RAJI cells are stimulated with anti-human IgM, thereby causing signaling through the B-cell receptors, as described in, for example, He et al., Leukemia Research (2009) 33: 798-802. B-cell receptor signaling is important for the activation, differentiation, and survival of B cells and certain B-cell derived cancers. Reduction of phospho-AKT is indicative of compounds that can inhibit B-cell proliferation and function in certain diseases. By monitoring the reduction of phospho-AKT in stimulated RAJI cells (using for example, phospho-AKT antibodies), a compound's potential efficacy in selectively inhibiting PI3Kδ can be assessed.
Certain compounds provided herein were tested in RAJI cell model using procedures as described above.

[6] = target: T6, p110 γ (Mus musculus, UniProt Q9JHG7); experiment: PI3K-γ selective cellular assay: phospho-AKT in C5a stimulated RAW264.7 macrophages; type: cell-based; conditions: serum-starved RAW264.7 cells stimulated with C5a
T6 construct: endogenous in cells; host or cells: RAW264.7 macrophages
Source text: (b) PI3K-γ Selective Assay
A compound's ability in selectively inhibiting PI3K-γ can be assessed using RAW264.7 macrophages. Briefly, serum-starved RAW264.7 cells are stimulated with a known GPCR agonist C5a. See, e.g., Camps et al., Nature Medicine (2005) 11(9):936-943. Cells can be treated with test compounds prior to, simultaneously with, or subsequent to the stimulation by C5a. RAW 264.7 cells respond to the complement component fragment C5a through activation of the C5a receptor, and the C5a receptor activates macrophages and induces cell migration. Test compounds' ability to inhibit C5a-mediated AKT phosphorylation is indicative of selective inhibition of PI3K-γ. Thus, by monitoring the reduction of phospho-AKT in stimulated RAW 264.7 cells (using for example, phospho-AKT antibodies), a compound's potential efficacy in selectively inhibiting PI3Kγ can be assessed.
Certain compounds provided herein were tested in RAW 264.7 cell model using procedures as described above.

[7] = tested on: BTK or MEK pathway; experiment: Effect on BTK or MEK pathway

T2 sequence (P42338 whole entry, canonical isoform): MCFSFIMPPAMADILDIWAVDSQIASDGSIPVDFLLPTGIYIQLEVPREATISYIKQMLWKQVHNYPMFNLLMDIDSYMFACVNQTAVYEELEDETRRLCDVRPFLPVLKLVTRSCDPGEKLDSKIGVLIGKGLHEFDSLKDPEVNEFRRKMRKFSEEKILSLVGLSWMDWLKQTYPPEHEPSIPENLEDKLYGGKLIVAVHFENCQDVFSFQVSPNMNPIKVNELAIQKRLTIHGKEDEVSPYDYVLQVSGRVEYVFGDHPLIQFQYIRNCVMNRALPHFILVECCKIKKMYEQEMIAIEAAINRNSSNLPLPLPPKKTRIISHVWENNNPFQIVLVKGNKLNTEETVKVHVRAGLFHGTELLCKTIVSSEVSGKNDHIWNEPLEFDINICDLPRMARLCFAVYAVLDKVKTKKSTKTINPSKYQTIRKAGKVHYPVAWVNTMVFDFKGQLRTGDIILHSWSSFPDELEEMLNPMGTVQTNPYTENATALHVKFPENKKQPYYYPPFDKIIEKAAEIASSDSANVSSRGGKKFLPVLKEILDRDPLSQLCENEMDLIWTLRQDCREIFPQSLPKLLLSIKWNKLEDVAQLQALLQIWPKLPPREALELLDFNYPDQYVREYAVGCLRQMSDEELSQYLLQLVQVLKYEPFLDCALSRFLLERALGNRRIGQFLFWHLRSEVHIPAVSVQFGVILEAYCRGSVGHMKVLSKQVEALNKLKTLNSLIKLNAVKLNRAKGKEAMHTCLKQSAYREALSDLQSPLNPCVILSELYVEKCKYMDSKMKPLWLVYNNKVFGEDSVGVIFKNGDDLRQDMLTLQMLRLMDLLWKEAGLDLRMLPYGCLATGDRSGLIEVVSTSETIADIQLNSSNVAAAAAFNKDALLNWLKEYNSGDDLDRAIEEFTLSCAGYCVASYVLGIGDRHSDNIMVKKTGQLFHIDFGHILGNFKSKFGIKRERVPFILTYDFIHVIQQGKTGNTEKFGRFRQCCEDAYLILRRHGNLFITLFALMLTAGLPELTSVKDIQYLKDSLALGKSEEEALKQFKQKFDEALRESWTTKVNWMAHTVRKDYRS
T2 sequence (P27986 whole entry partner, canonical isoform): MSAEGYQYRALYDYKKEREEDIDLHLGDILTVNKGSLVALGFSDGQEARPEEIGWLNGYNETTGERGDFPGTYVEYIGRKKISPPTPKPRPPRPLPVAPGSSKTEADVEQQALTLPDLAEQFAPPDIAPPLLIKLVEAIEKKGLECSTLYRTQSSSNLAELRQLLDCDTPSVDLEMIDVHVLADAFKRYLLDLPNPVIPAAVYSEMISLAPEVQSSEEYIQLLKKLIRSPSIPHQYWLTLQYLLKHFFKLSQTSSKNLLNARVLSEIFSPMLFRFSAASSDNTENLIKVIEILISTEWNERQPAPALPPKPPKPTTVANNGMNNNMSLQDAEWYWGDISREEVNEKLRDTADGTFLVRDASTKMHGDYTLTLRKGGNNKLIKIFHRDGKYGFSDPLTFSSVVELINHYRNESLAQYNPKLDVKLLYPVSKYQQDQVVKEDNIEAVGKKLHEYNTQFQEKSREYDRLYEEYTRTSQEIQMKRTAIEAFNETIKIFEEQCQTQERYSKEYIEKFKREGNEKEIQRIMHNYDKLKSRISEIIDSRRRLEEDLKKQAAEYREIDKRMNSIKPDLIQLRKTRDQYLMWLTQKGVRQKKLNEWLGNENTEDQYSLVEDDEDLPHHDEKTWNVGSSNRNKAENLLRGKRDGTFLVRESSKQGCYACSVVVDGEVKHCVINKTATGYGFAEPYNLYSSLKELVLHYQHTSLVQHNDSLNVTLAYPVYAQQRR
T1 sequence (P42336 whole entry, canonical isoform): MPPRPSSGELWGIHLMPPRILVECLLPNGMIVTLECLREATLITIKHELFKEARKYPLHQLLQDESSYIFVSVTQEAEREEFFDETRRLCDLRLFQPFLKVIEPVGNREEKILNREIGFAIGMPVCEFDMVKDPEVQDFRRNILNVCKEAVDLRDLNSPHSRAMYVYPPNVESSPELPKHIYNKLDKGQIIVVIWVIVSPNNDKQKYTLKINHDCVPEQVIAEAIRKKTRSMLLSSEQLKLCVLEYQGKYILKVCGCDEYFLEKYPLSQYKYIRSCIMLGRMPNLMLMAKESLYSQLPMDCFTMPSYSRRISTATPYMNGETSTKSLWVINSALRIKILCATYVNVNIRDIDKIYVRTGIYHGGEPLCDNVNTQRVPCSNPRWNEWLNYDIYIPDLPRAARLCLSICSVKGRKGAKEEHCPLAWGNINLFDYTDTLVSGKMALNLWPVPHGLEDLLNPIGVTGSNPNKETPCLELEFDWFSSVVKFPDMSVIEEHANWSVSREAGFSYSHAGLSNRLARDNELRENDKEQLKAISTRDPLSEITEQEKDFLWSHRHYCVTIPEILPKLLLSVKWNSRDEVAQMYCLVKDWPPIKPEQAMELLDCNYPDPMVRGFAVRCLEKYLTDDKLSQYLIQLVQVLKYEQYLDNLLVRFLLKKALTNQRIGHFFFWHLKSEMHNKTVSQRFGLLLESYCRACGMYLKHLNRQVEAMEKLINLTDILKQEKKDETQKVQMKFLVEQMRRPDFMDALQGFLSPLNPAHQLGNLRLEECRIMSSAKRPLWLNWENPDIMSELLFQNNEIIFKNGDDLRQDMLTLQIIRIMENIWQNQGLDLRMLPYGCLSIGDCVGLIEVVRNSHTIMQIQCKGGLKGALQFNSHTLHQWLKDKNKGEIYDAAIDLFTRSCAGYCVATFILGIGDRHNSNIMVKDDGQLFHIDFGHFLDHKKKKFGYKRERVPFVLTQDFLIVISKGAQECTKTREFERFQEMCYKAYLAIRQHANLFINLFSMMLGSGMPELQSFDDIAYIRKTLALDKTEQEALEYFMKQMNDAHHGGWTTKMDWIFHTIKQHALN
T1 sequence (P27986 whole entry partner, canonical isoform): as the sequence (P27986 whole entry partner, canonical isoform) above
T4 sequence (P48736 whole entry, canonical isoform): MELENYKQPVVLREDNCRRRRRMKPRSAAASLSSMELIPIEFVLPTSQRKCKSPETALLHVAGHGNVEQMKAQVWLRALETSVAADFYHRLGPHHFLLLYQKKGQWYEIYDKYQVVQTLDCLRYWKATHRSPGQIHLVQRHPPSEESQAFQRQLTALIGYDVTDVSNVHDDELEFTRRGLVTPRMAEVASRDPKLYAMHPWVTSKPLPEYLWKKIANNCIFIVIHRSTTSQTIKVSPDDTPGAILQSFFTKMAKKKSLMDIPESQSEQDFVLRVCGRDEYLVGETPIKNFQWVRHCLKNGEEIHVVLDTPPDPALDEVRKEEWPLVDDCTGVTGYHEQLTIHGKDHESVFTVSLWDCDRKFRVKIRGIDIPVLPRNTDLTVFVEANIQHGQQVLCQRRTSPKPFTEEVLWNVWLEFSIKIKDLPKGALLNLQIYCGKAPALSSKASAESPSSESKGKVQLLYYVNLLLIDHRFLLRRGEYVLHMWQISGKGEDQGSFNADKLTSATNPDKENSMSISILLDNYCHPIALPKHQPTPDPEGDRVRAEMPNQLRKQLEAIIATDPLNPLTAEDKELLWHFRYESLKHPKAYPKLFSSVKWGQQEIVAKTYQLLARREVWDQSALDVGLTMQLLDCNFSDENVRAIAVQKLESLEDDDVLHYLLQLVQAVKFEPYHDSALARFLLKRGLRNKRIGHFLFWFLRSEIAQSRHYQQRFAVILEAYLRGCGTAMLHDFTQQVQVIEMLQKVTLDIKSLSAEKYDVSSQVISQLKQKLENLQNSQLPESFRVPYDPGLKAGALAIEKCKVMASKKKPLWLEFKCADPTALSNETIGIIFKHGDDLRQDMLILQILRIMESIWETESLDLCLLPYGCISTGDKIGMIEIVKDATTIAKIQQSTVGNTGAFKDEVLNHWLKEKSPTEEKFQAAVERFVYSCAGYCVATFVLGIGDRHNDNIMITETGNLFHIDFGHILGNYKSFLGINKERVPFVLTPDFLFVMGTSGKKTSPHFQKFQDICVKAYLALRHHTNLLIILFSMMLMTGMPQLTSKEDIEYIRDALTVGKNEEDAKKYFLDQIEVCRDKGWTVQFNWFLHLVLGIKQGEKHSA
T5 sequence (O00329 whole entry): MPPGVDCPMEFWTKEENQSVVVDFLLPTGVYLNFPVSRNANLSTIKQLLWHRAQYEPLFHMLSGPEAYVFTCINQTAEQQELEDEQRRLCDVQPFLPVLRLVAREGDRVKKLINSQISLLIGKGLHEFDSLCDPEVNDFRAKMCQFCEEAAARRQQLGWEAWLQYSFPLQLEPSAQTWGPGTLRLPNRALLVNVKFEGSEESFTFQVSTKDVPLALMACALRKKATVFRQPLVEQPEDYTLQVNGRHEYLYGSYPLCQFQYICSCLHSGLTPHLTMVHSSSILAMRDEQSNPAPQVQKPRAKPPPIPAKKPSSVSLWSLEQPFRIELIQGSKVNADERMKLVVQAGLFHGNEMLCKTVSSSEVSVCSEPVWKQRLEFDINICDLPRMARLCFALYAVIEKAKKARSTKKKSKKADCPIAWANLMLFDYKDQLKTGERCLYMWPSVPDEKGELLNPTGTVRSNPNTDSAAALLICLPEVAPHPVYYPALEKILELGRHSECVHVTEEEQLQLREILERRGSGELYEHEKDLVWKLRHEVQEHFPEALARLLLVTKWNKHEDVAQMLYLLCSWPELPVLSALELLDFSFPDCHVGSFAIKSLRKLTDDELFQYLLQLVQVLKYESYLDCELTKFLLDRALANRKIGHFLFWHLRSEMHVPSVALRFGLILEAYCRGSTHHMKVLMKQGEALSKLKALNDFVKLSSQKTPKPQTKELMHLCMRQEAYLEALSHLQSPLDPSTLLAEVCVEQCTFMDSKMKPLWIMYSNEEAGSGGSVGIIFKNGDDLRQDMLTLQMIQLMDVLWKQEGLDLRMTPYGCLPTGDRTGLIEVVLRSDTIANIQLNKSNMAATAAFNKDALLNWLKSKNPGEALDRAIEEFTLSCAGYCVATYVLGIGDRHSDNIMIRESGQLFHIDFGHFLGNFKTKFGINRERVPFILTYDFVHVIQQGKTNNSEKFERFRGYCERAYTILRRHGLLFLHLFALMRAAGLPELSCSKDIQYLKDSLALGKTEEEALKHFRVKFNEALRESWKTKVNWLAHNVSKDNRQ
T5 sequence (P27986 whole entry partner): as the sequence (P27986 whole entry partner, canonical isoform) above

Row | SMILES | IC50 [1] [nM] | IC50 [2] [nM] | IC50 [3] [nM] | IC50 [4] [nM] | IC50 [5] [nM] | IC50 [6] [nM] | Effect on BTK or MEK pathway [7]
1 | CC[C@H](Nc1ncnc2[nH]cnc12)c1cc2cccc(F)c2c(=O)n1-c1ccccc1 [1 s] | 3500 to 10000 | 100 to 3500 | 10 to 100 | 100 to 3500 | 1 to 10 | 100 to 3500 | –
2 | C[C@H](Nc1ncnc2[nH]cnc12)c1cc2ccc(F)c(Cl)c2c(=O)n1-c1ccccc1 [96 s] | 100 to 3500 | 100 to 3500 | 1 to 10 | 100 to 3500 | 1 to 10 | 10 to 100 | –
3 | CCC(Nc1ncnc2[nH]cnc12)c1cc2cccc(F)c2c(=O)n1-c1ccccc1 (stereo not shown) [Compound 1] | – | – | – | – | – | – | does not affect BTK or MEK pathway
